The target of the experiment is T1, ABL1 G250E (Homo sapiens, UniProt P00519, G250E).
T1 construct: purchased Thermo Fisher Scientific (Life Technologies) SelectScreen
The experiment is described as follows: SelectScreen Z'LYTE. The format is biochemical. The procedure, abridged: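 Compound tested in SelectScreen activity assays, Z'LYTE for CSF1R, CDK1/cyclin B and MAP2K6 and Adapta for CAMK1. ATP for CAMK1 was listed as 10, and Km app was used for CSF1R. Results are expressed in percent.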

The term inhibition denotes the relative decrease from the control value, in per cent. Take `CN(C(=O)CN1CCOCC1)c1ccc2sc3c(-c4cccc5c(=O)cc(N6CC7CCC(C6)O7)oc45)cccc3c2c1` [NU5455]: the inhibition at 1 µM was -8.5%.

The record behind these values is article PMC6934184, “Selective DNA-PKcs inhibition extends the therapeutic index of localized radiotherapy and chemotherapy” (The Journal of Clinical Investigation, 2019).
